# Data taken from a melting point compilation (Tetko et al.; mined from patent text by program, amines drawn as free bases though some values may be those of a salt).
row,melting point,SMILES
1,118 to 120 °C,O=C1CCC(N2Cc3c(OCC4CCCOC4)cccc3C2=O)C(=O)N1 (stereo not drawn)
2,82 °C,CCc1cc(C(=O)Nc2c(C)cccc2C)no1
3,72 °C,CC(C)c1ccc2c(c1)C(O)(c1ccccn1)CC(C)(C)CO2 (stereo not drawn)
4,109 to 110 °C,CCc1ccc(N(Cc2ccc(N(C)C)cc2)C(=O)C2CCCc3ccccc32)cc1 (stereo not drawn)
5,125 to 127 °C,Cc1ccc(O[C@@H]2CCNC[C@H]2O)cc1C (relative stereo)
6,262 to 263 °C,CCOC(=O)Cn1c(=O)c(=O)[nH]c2cc(C(F)(F)F)c(-n3c(C)ccc3C)cc21
7,91 to 93 °C,CSc1cc2c(cc1C(F)(F)F)N(C(=O)Nc1cccc(C(=O)NCCN(C)C)c1)CC2
8,145 to 150 °C,CCCCOC(=O)c1ccc(N2CCN(S(C)(=O)=O)CC2)cc1
9,135 to 137 °C,CN1CCN(Cc2ccc(-c3nc4cc([N+](=O)[O-])ccc4o3)s2)CC1
10,215 to 216 °C,CCn1cc(C(=O)O)c(=O)c2cc(F)c(N3CCC(CNCCO)C3)c(F)c21 (stereo not drawn)
11,237 to 238 °C,Nc1nc2cccnc2c2c1nc(CCCO)n2CC1(O)CCOCC1
12,219 °C,CC(C)(C)C(=O)N1CC=C(C#Cc2ccc3c(c2)NC(=O)CC(c2cccc(C#N)c2)=N3)CC1
13,80 to 85 °C,Cc1cc(C)c(C2C(=O)N(N(C)C)C3(CCN(N(C)C)CC3)C2=O)c(C)c1 (stereo not drawn)
14,94 to 97 °C,CCC(=O)c1cc([C@]2(c3cccc(-c4cccnc4F)c3)N=C(N)N(C)C2=O)cn1CC
15,156 to 158 °C,Cn1cc(C(=O)NCc2ccc(Cl)cc2)c(=O)c2cc(CN3CCOCC3)cc(I)c21
16,244 to 247 °C,O=C(c1cc2cc3[nH]c(=O)oc3cc2[nH]1)N1CCC(Cc2ccc(F)cc2)CC1

row,melting point,SMILES
1,99 to 103 °C,Cc1cc(C)c(/C=C/C=O)c(Br)c1
2,77 to 78 °C,CCOC(=O)CC1(CC)OCCc2c1[nH]c1c(C)cccc21 (stereo not drawn)
3,102 to 104 °C,Cc1ccc(O)c(C)c1O
4,124 to 128 °C,Cc1cccc(-c2[nH]c(C(C)C)nc2-c2cccc(-c3ccc(NS(=O)(=O)C4CC4)cc3F)c2)n1
5,132 to 133 °C,CN1CCN(c2c(F)c(NCc3ccccc3)c3c(=O)c(C(=O)O)cn(C4CC4)c3c2F)CC1
6,142 to 143 °C,Cc1c(NC(=O)c2ccc(CC(=O)C3CCOC3)cc2)ccc2cc(CN3CCCC3)cnc12 (stereo not drawn)
7,123 to 125 °C,OC1(c2ccc3c(c2)OCO3)CCN(CCc2ccccc2)CC1
8,42 to 46 °C,CN1CCC(C2=CC(=O)CCC2)C1=O (stereo not drawn)
9,128 to 131 °C,CCOC(=O)N(C)CC1CN(c2c(F)cc3c(=O)c(C(=O)O)cn(C4CC4)c3c2F)CCO1 (stereo not drawn)
10,98.5 to 100 °C,Cc1cc(C)cc(-c2[nH]c3ccc(-c4nccs4)cc3c2CCN)c1
11,191 to 194 °C,CCOC(=O)C1=C(C)NC(C)=C(C(=O)OCC)C1c1csc2cc([N+](=O)[O-])ccc12
12,178 to 180 °C,CC1CCN(CCCC(=O)c2ccc3c(c2)C(=O)c2cc(C(=O)CCCN4CCC(C)CC4)ccc2-3)CC1
13,253 to 255 °C,CC(C)(C)c1cc(OCc2ccc(-c3nnn[nH]3)cc2)cc(C(C)(C)C)c1
14,111 to 113 °C,COc1cccc(OS(=O)(=O)c2ccc(N3CCN(C)C3=O)cc2)c1
15,195 to 196 °C,COc1ccccc1Oc1c(NS(=O)(=O)c2ccc(C)cn2)nc(N2CCOCC2)nc1OCCO
16,142 °C,O=C(Oc1ccc2c(c1)OC=C(C(=O)N1CCN(C(c3ccc(F)cc3)c3ccc(F)cc3)CC1)O2)c1cccnc1

# The remaining lines, values behind:
row,SMILES,melting point
1,CCCc1nnc2n1-c1ccc(Cl)cc1C(c1ccccc1)=NC2,176 °C
2,COC(=O)c1cccc([N+](=O)[O-])c1I,64 to 64.5 °C
3,C=CCOc1cc(N)c(Cl)cc1C(=O)O,136 to 137 °C
4,CC(=O)OC1CSC(Oc2cncc(-c3ccc(C(F)(F)F)cc3)c2)C(OC(C)=O)C1OC(C)=O (stereo not drawn),163 to 164 °C
5,O=C(CCc1ccncc1)c1c(O)c2cccnc2n(-c2ccccc2)c1=O,206 to 208 °C
6,CCON=Cc1ccccc1OCc1ccccc1C(=COC)C(=O)OC,86 to 88 °C
7,CCc1c([N+](=O)[O-])c(C(N)=O)nn1C1CN(C(c2ccccc2)c2ccccc2)C1,254 to 257 °C
8,CC(C(=O)O)c1ccc2oc(Nc3ccc(Cl)cc3)nc2c1 (stereo not drawn),206 to 208 °C
9,CCN(CC)C(=O)n1cnc(S(=O)(=O)Cl)n1,44 to 47 °C
10,CCCCCCCCCCCCN1C(C)(C)CC(O)CC1(C)C,41 to 42 °C
11,CCN(CC)CCNC(=O)c1cc(Cl)c(N)cc1OCC(=O)c1cccs1,135 to 139 °C
12,COc1ccc2c(c1)C(=O)c1cc(CC(=O)O)ccc1SC2,155 to 157 °C
13,Cn1cc(-c2ccccc2)c(=O)c(-c2ccccc2Cl)c1,145 °C
14,CCCCN(CCCC)C(=N)c1ccc(-c2ccc([N+](=O)[O-])cc2)o1,100 to 101 °C
15,Cn1c(=O)c(-c2c(Cl)cccc2Cl)cc2cnc(NCc3ccccn3)nc21,198 to 201 °C
16,Cc1nc(-c2nc(=O)c3ccccc3s2)cs1,219 to 220 °C
17,C#Cc1ccc2c(c1-c1cn(C3CC(O)C(COC(c4ccccc4)(c4ccc(OC)cc4)c4ccc(OC)cc4)O3)c(=O)[nH]c1=O)Cc1ccccc1-2 (stereo not drawn),160 to 161 °C
18,COC(=O)c1c(S(=O)(=O)NC(=O)Nc2nc(OC)cc(OC)n2)ccn1C,182 to 186 °C
19,C[C@H](NC(=O)CCC(=O)NO)C(=O)N1CCC[C@H]1C(=O)O,195 to 196 °C
20,O=C(/C=C/c1ccccc1)NC1CCN(CCC2CCOc3ccccc32)CC1 (stereo not drawn),168 to 170 °C
21,O=C(/C=C/c1ccc(F)cc1)c1cnc2sc3c(n12)CCCCC3,187 to 188 °C
22,COc1ccc(F)cc1C(C)(C)CC(O)(Cc1ccc(C(C)=NO)cc1Cl)C(F)(F)F (stereo not drawn),136 to 138 °C

row,SMILES,melting point
1,O=C(O)c1cc(=O)c(OCc2ccccc2)c(-c2ccccc2)o1,161 to 170 °C
2,Oc1ccc2c(ccn2Cc2ccncc2)c1,185 to 186 °C
3,FC(F)(F)Oc1cccc(-c2ccc3nnn(Cc4ccc5ncccc5c4)c3n2)c1,140 to 142 °C
4,CC[C@H](C)[C@H](NC(=O)[C@H](C)N(C(=O)OC(C)(C)C)C1CCCCC1)C(=O)N[C@@H](Cc1ccc(C(C)(C)C)cc1)[C@@H](O)[C@@H](O)CC(C)C,171 to 172 °C
5,O=C(N[C@H](Cc1ccc(C(F)(F)F)cc1)[C@@H](O)c1cccc2ccccc12)c1ccc(F)cc1 (racemic),194 to 195 °C
6,COCCCOc1ccc(/C=C/C(=O)O)c(Oc2ncc(C(F)(F)F)cc2Cl)c1,131 to 133 °C
7,COC(=O)C(C)Oc1cc(Cl)ccc1COc1ccc(-c2nn(C)c(OC(F)F)c2Cl)cc1 (stereo not drawn),61 to 64 °C
8,COc1cccc(Cc2snnc2-c2ccco2)c1,80.6 to 82 °C
9,COc1cccc(OC(=O)NC2C(=O)N(CCC(C)C)c3cc(Cl)c(Cl)cc3N(c3ccccc3)C2=O)c1 (stereo not drawn),139 to 140 °C
10,CCN(CCOc1cccnc1[N+](=O)[O-])CCN1C(=O)c2ccccc2C1=O,124 to 126 °C
11,CCOC(=Nc1nc(C)cc(OC)n1)NS(=O)(=O)c1ccccc1OC(F)F,131 to 133 °C
12,CCN1c2ncc(CCc3ccnc(C(=O)OC)c3)cc2C(=O)N(C)c2ccc(Cl)nc21,149 °C
13,CCCc1cccn2c(=O)c(-c3nnn[nH]3)cnc12,269 to 272 °C
14,COC(=O)c1cncc(OC2SCC(OC(C)=O)C(OC(C)=O)C2OC(C)=O)c1 (stereo not drawn),50 °C
15,CN(C)N=Nc1ccsc1C(N)=O,168 to 170 °C
16,Cc1ccc(S(=O)(=O)NCCN(CCNS(=O)(=O)c2ccc(C)cc2)Cc2ccccc2)cc1,87 to 91 °C
17,Cc1cc(C=O)c(OCCCCCCBr)c(C=O)c1,46 °C
18,Nc1nc(-c2ccc(F)cc2)cn1N,227 to 230 °C
19,COc1ccc(CBr)c(Cl)c1Cl,101 to 102 °C
20,O=c1cnc2c(NC(CO)CO)nc(SCc3cccs3)nc2[nH]1,220 to 223 °C
21,Cc1c(O)nc2ccc(F)cc2c1C(=O)O,> 305 °C
22,COC(=O)c1cc(NC(=N)N)c(NC(C)=O)c(Br)c1O,238 to 240 °C

row,SMILES,melting point
1,CC(=NNC(=O)c1cccc(C)c1)c1cc(Cl)cc(Cl)c1O,221 to 223 °C
2,COc1cc(C=Cc2cc(OC)c(OC)c(OC)c2)cc(Br)c1OC,180 to 182 °C
3,CC(C)n1cncc1CO,83 to 84 °C
4,COc1ccc2nc(-c3ccc(OC)c(F)c3)cc(O)c2c1,326 to 328 °C
5,CCCCc1nc2c(N)nc3ccccc3c2n1CCOc1ccccc1,168 to 170 °C
6,Clc1ccc(NN=Cc2ccc(Oc3nn(Cc4ccccc4)c4ccccc34)o2)nn1,200 to 202 °C
7,CS(=O)(=O)c1ccc(-c2c(-c3ccc(F)cc3)c(=O)n3n2Cc2c(Cl)cccc2-3)cc1,237 to 240 °C
8,COc1ccc(CCN(C)CCOc2ccc(NC(=O)c3cc(SC)cc4c(=O)c5ccccc5[nH]c34)cc2)cc1OC,150 °C
9,Clc1ccc2c(c1)C(c1ccccc1)=NCc1nnc(C(Cl)Cl)n1-2,193 to 196 °C
10,c1ccc(COc2ccc(C(c3ccc(OCc4ccccc4)cc3)n3cncn3)cc2)cc1,134 to 137 °C
11,CN(C)CCc1[nH]c2ccccc2c1CC(C#N)(c1ccccc1)c1ccccc1,181 to 185 °C
12,Cc1cc(-c2ccc(Cl)cc2)nc2c(I)cnn12,147 to 148 °C
13,Cc1nc(Cl)c2c(-c3ccc([N+](=O)[O-])o3)nn(C)c2n1,212 °C
14,CCCCCC1OCc2cc(C(=O)O)ccc2O1 (stereo not drawn),148 °C
15,Cc1nc2cccc(S(N)(=O)=O)c2s1,223 to 224 °C
16,Cc1c(C(=O)O)ccc(O)c1O,200 to 201 °C
17,c1cc2ccsc2cn1,< 50 °C
18,CCOCCn1cccc1-c1nc(-c2ccc(OC)cc2)c(-c2ccc(OC)cc2)s1,68 to 71 °C
19,COCOc1cc(/C=C/C(=O)/C=C/c2cc(OCOC)cc(OCOC)c2)cc(OCOC)c1,90 to 92 °C
20,Clc1ccc(CN2CCN(CCN3CCCCC3)CC2c2ccccc2)cc1 (stereo not drawn),85 to 87 °C
21,CS(=O)(=O)Nc1cccc(C=C2c3ccccc3CCc3ccccc32)c1,66.3 °C
22,Cc1ccc(C#N)c(OC(C)(C)C=O)c1,57 to 59 °C
